Measured values: US7691601B2, “Medium for detecting and/or identifying of microorganisms” (priority 2003, dated 2010)

Tests used:
[1] = system: Candida krusei; experiment: Coloration of Candida krusei colonies on detection medium; format: cell-based; set-up: key: 0=absence of coloration; 0.5=trace coloration; 1=weak coloration; 2=strong coloration
Procedure: (§1) Preparation of the detection medium: A volume of 250 ml of detection medium is prepared from a powdered medium having the following composition:
(§2) Melting is carried out at 100° C., and the medium is autoclaved at 121° C. for 15 minutes. The additives are then added to the medium: Magenta C8 (500 mg/l; B-7102, BIOSYNTH, Staad, Switzerland); X-glucoside (75 mg/l; B-7250, BIOSYNTH, Staad, Switzerland); cefsulodine (10 mg/l; C 4786, Sigma, St Quentin Fallavier, France), and also the esterase inhibitor: • ? O,O-diethyl p-nitrophenyl phosphate: 5 mg/l • ? O,O-dimethyl p-nitrophenyl phosphate: 25 mg/l or • ? O,O-di-(2-chloroethyl)-O-(3-chloro-4-methylcoumarin-7-yl)phosphate: 75 mg/l
(§3) The various selection media thus obtained are then poured into Petri dishes.
(§4) Seeding of yeast of the Candida genus: 10 μl of stools are deposited onto a Petri dish, and this stool suspension is mixed or not mixed with 10 μl of a suspension of Candida and isolated as 3 dials on a Petri dish. Various stools and various strains of Candida genus originating from the applicant's collection are used according to this protocol. The Petri dishes are incubated at 37° C. for 24 hours.
(§5) The appearance of a coloration at the point of deposit of the stool and in the Candida colonies is read according to a semi-quantitative scale: • 0=absence of coloration • 0.5=trace coloration • 1=weak coloration • 2=strong coloration.

[2] = system: Salmonella Enteritidis; experiment: Coloration of Salmonella Enteritidis colonies on detection medium; format: cell-based; set-up: key: 0=no coloration; 0.5=trace of coloration; 1=weak coloration; 2=strong coloration
Procedure: as §1
(§6) Melting is carried out at 100° C., and the medium is autoclaved at 121° C. for 15 minutes. The additives are then added to the medium: Magenta C8 (500 mg/l; B-7102, BIOSYNTH, Staad, Switzerland); X-glucoside (75 mg/l; B-7250, BIOSYNTH, Staad, Switzerland); cefsulodine (10 mg/l; C 4786, Sigma, St Quentin Fallavier, France) and various concentrations of the inhibitor O,O-diethyl p-nitrophenyl phosphate (Paraoxon® ethyl; CAS No. 311-45-5; 36186, Riedel-de Haën, St Quentin Fallavier, France; 0; 1; 5 or 10 mg/l).
(§7) The various detection media thus obtained are then poured into Petri dishes.
(§8) Seeding of Salmonella bacteria: 10 μl of stools are deposited onto a Petri dish, this stool suspension is mixed or not mixed with 10 μl of a suspension of Salmonella (0.5 McF) and isolated as 3 dials on a Petri dish. Various […] and various Salmonella strains originating from the applicant's collection are used according to this protocol. The Petri dishes are incubated at 37° C. for 24 hours. The appearance of a coloration at the point of deposit of the stool (“deposit” column) and at the Salmonella colony (“colony” column) is read according to a semi-quantitative scale: • 0=no coloration • 0.5=trace of coloration • 1=weak coloration • 2=strong coloration The results obtained are given in Table 1.
(§9) Melting is carried out at 100° C., and the medium is autoclaved at 121° C. for 15 minutes. The additives are then added to the medium: Magenta C8 (500 mg/l; B-7102, BIOSYNTH, Staad, Switzerland); X-glucoside (75 mg/l; B-7250, BIOSYNTH, Staad, Switzerland); cefsulodine (10 mg/l; C 4786, Sigma, St Quentin Fallavier, France) and various concentrations of the inhibitor O,O-dimethyl p-nitrophenyl phosphate (Paraoxon® methyl; CAS No. 950-35-6; Riedel-de Haën, St Quentin Fallavier, France; 5, 10, 25 mg/l).
(§10) Seeding of Salmonella bacteria: The Petri dishes are inoculated, incubated and read as in Example 1.
(§11) Preparation of the detection medium: 250 ml of the medium of Example 1, in which the O,O-diethyl p-nitrophenyl phosphate is replaced with various concentrations of O,O-di-(2-chloroethyl)-O-(3-chloro-4-methylcoumarin-7-yl)phosphate (Haloxon®; CAS No. 321-55-1; R276995, Sigma, St Quentin Fallavier, France; 0; 1; 10; 100 or 1000 mg/l), are prepared according to the method of Example 1.
as §3

[3] = system: free esterases in stools; experiment: Coloration at the point of deposit of the stool on Candida detection medium; format: biochemical; set-up: key: 0=no coloration; 0.5=trace of coloration; 1=weak coloration; 2=strong coloration; conditions: Table 4
Procedure: as §1, §2, §3, §4, §5

[4] = system: free esterases in a stool sample; experiment: Coloration at the point of deposit of the stool on Salmonella detection medium (Magenta C8); format: biochemical; set-up: key to Deposit coloration: 0=no coloration; 0.5=trace of coloration; 1=weak coloration; 2=strong coloration; conditions: for Aspecific enzymatic reactions due to the presence of free enzymes: stools, Salmonella detection medium, summary in words
Procedure: as §1, §6, §7, §8, §9, §10, §11, §3

[5] = Colonies column read for stool without added strain, Candida detection medium; set-up: key: 0=absence of coloration; 0.5=trace coloration; 1=weak coloration; 2=strong coloration; conditions: Table 4, no strain
Procedure: as §1, §2, §3, §4, §5

[6] = system: Salmonella Typhi; experiment: Coloration of Salmonella Typhi colonies on detection medium; format: cell-based; set-up: key: 0=no coloration; 0.5=trace of coloration; 1=weak coloration; 2=strong coloration
Procedure: as §1, §6, §7, §8, §9, §10, §11, §3

## COP(=O)(OC)Oc1ccc([N+](=O)[O-])cc1 [O,O-dimethyl p-nitrophenyl phosphate]
[1]; Table 4, 25 mg/l, stool A
  Colonies coloration: 0.5
[1]; Table 4, 25 mg/l, stool B
  Colonies coloration: 0.5
[2]; Table 2, 5 mg/l, stool C
  Colonies coloration: 2
[2]; Table 2, 5 mg/l, stool D
  Colonies coloration: 2
[2]; Table 2, 10 mg/l, stool C
  Colonies coloration: 2
[2]; Table 2, 10 mg/l, stool D
  Colonies coloration: 2
[2]; Table 2, 25 mg/l, stool C
  Colonies coloration: 2
[2]; Table 2, 25 mg/l, stool D
  Colonies coloration: 2
[3]; 25 mg/l, stool A, Candida albicans
  Deposit coloration: 1
[3]; 25 mg/l, stool A, Candida dubliniensis
  Deposit coloration: 1
[3]; 25 mg/l, stool A, Candida krusei
  Deposit coloration: 1
[3]; 25 mg/l, stool B, Candida albicans
  Deposit coloration: 1
[3]; 25 mg/l, stool B, Candida dubliniensis
  Deposit coloration: 1
[3]; 25 mg/l, stool B, Candida krusei
  Deposit coloration: 1
[4]; Table 2, 5 mg/l, stool C, Salmonella Enteritidis
  Deposit coloration: 1
[4]; Table 2, 5 mg/l, stool C, Salmonella Typhi
  Deposit coloration: 1
[4]; Table 2, 5 mg/l, stool C, no strain
  Deposit coloration: 1
[4]; Table 2, 5 mg/l, stool D, Salmonella Enteritidis
  Deposit coloration: 1
[4]; Table 2, 5 mg/l, stool D, Salmonella Typhi
  Deposit coloration: 1
[4]; Table 2, 5 mg/l, stool D, no strain
  Deposit coloration: 1
[4]; Table 2, 10 mg/l, stool C, Salmonella Enteritidis
  Deposit coloration: 0.5
[4]; Table 2, 10 mg/l, stool C, Salmonella Typhi
  Deposit coloration: 0.5
[4]; Table 2, 10 mg/l, stool C, no strain
  Deposit coloration: 0.5
[4]; Table 2, 10 mg/l, stool D, Salmonella Enteritidis
  Deposit coloration: 1
[4]; Table 2, 10 mg/l, stool D, Salmonella Typhi
  Deposit coloration: 1
[4]; Table 2, 10 mg/l, stool D, no strain
  Deposit coloration: 1
[4]; Table 2, 25 mg/l, stool C, Salmonella Enteritidis
  Deposit coloration: 0
[4]; Table 2, 25 mg/l, stool C, Salmonella Typhi
  Deposit coloration: 0
[4]; Table 2, 25 mg/l, stool C, no strain
  Deposit coloration: 0
[4]; Table 2, 25 mg/l, stool D, Salmonella Enteritidis
  Deposit coloration: 0
[4]; Table 2, 25 mg/l, stool D, Salmonella Typhi
  Deposit coloration: 0
[4]; Table 2, 25 mg/l, stool D, no strain
  Deposit coloration: 0
[4]
  Aspecific enzymatic reactions due to the presence of free enzymes: greatly inhibited
[5]; 25 mg/l, stool A
  Colonies coloration: 0
[5]; 25 mg/l, stool B
  Colonies coloration: 0
[6]; Table 2, 5 mg/l, stool C
  Colonies coloration: 0.5
[6]; Table 2, 5 mg/l, stool D
  Colonies coloration: 0.5
[6]; Table 2, 10 mg/l, stool C
  Colonies coloration: 1
[6]; Table 2, 10 mg/l, stool D
  Colonies coloration: 0.5
[6]; Table 2, 25 mg/l, stool C
  Colonies coloration: 0.5
[6]; Table 2, 25 mg/l, stool D
  Colonies coloration: 0.5

## CCOP(=O)(OCC)Oc1ccc([N+](=O)[O-])cc1 [O,O-diethyl p-nitrophenyl phosphate]
[1]; Table 4, 5 mg/l, stool A
  Colonies coloration: 0.5
[1]; Table 4, 5 mg/l, stool B
  Colonies coloration: 0.5
[2]; Table 1, 1 mg/l, stool A
  Colonies coloration: 2
[2]; Table 1, 1 mg/l, stool B
  Colonies coloration: 2
[2]; Table 1, 5 mg/l, stool A
  Colonies coloration: 2
[2]; Table 1, 5 mg/l, stool B
  Colonies coloration: 2
[2]; Table 1, 10 mg/l, stool A
  Colonies coloration: 2
[2]; Table 1, 10 mg/l, stool B
  Colonies coloration: 2
[3]; 5 mg/l, stool A, Candida albicans
  Deposit coloration: 1
[3]; 5 mg/l, stool A, Candida dubliniensis
  Deposit coloration: 1
[3]; 5 mg/l, stool A, Candida krusei
  Deposit coloration: 1
[3]; 5 mg/l, stool B, Candida albicans
  Deposit coloration: 1
[3]; 5 mg/l, stool B, Candida dubliniensis
  Deposit coloration: 1
[3]; 5 mg/l, stool B, Candida krusei
  Deposit coloration: 1
[4]; Table 1, 1 mg/l, stool A, Salmonella Enteritidis
  Deposit coloration: 0.5
[4]; Table 1, 1 mg/l, stool A, Salmonella Paratyphi A
  Deposit coloration: 0.5
[4]; Table 1, 1 mg/l, stool A, Salmonella Typhi
  Deposit coloration: 0.5
[4]; Table 1, 1 mg/l, stool A, no strain
  Deposit coloration: 0.5
[4]; Table 1, 1 mg/l, stool B, Salmonella Enteritidis
  Deposit coloration: 0
[4]; Table 1, 1 mg/l, stool B, Salmonella Paratyphi A
  Deposit coloration: 0
[4]; Table 1, 1 mg/l, stool B, Salmonella Typhi
  Deposit coloration: 0
[4]; Table 1, 1 mg/l, stool B, no strain
  Deposit coloration: 0
[4]; Table 1, 5 mg/l, stool A, Salmonella Enteritidis
  Deposit coloration: 0
[4]; Table 1, 5 mg/l, stool A, Salmonella Paratyphi A
  Deposit coloration: 0
[4]; Table 1, 5 mg/l, stool A, Salmonella Typhi
  Deposit coloration: 0
[4]; Table 1, 5 mg/l, stool A, no strain
  Deposit coloration: 0
[4]; Table 1, 5 mg/l, stool B, Salmonella Enteritidis
  Deposit coloration: 0
[4]; Table 1, 5 mg/l, stool B, Salmonella Paratyphi A
  Deposit coloration: 0
[4]; Table 1, 5 mg/l, stool B, Salmonella Typhi
  Deposit coloration: 0
[4]; Table 1, 5 mg/l, stool B, no strain
  Deposit coloration: 0
[4]; Table 1, 10 mg/l, stool A, Salmonella Enteritidis
  Deposit coloration: 0
[4]; Table 1, 10 mg/l, stool A, Salmonella Paratyphi A
  Deposit coloration: 0
[4]; Table 1, 10 mg/l, stool A, Salmonella Typhi
  Deposit coloration: 0
[4]; Table 1, 10 mg/l, stool A, no strain
  Deposit coloration: 0
[4]; Table 1, 10 mg/l, stool B, Salmonella Enteritidis
  Deposit coloration: 0
[4]; Table 1, 10 mg/l, stool B, Salmonella Paratyphi A
  Deposit coloration: 0
[4]; Table 1, 10 mg/l, stool B, Salmonella Typhi
  Deposit coloration: 0
[4]; Table 1, 10 mg/l, stool B, no strain
  Deposit coloration: 0
[4]
  Aspecific enzymatic reactions due to the presence of free enzymes: greatly inhibited
[5]; 5 mg/l, stool A
  Colonies coloration: 0
[5]; 5 mg/l, stool B
  Colonies coloration: 0
[6]; Table 1, 1 mg/l, stool A
  Colonies coloration: 1
[6]; Table 1, 1 mg/l, stool B
  Colonies coloration: 1
[6]; Table 1, 5 mg/l, stool A
  Colonies coloration: 1
[6]; Table 1, 5 mg/l, stool B
  Colonies coloration: 1
[6]; Table 1, 10 mg/l, stool A
  Colonies coloration: 1
[6]; Table 1, 10 mg/l, stool B
  Colonies coloration: 1
